# Measurements reported in ChEMBL document CHEMBL4184177, “Synthesis and bioevaluation study of novel N-methylpicolinamide and thienopyrimidine derivatives as selectivity c-Met kinase inhibitors” (Bioorg Med Chem, 2018).
# Calls of active or inactive are those of the source. No cut-off for these calls is given here.
# Key:
# HepG2 [1] = assay: Induction of apoptosis in human HepG2 cells assessed as early apoptotic cells at 0.47 uM by Annexin V-FITC/propidium iodide staining based flow cytometry (reference value: 1.11%); assay type: functional
# HepG2 [2] = assay: Induction of apoptosis in human HepG2 cells assessed as early apoptotic cells at 0.23 uM by Annexin V-FITC/propidium iodide staining based flow cytometry (reference value: 1.11%); assay type: functional
# HepG2 [3] = assay: Induction of apoptosis in human HepG2 cells assessed as necrotic cells at 0.94 uM by Annexin V-FITC/propidium iodide staining based flow cytometry (reference value: 0.28%); assay type: functional
# HepG2 [4] = assay: Induction of morphological changes in human HepG2 cells assessed as cell shrinkage at 0.47 uM by acridine orange dye based inverted microscopy and fluorescence microscopic method; assay type: functional
# A549 = assay: Cytotoxicity against human A549 cells after 72 hrs by MTT assay; conditions: A549, 72 h
# HepG2 [5] = assay: Induction of apoptosis in human HepG2 cells assessed as late apoptotic cells at 0.47 uM by Annexin V-FITC/propidium iodide staining based flow cytometry (reference value: 2.07%); assay type: functional
# HepG2 [6] = assay: Induction of apoptosis in human HepG2 cells assessed as late apoptotic cells at 0.23 uM by Annexin V-FITC/propidium iodide staining based flow cytometry (reference value: 2.07%); assay type: functional
# HepG2 [7] = assay: Induction of apoptosis in human HepG2 cells assessed as late apoptotic cells at 0.94 uM by Annexin V-FITC/propidium iodide staining based flow cytometry (reference value: 2.07%); assay type: functional
# HepG2 [8] = assay: cells; conditions: Homo sapiens, HepG2, 72 h
# Description: Cytotoxicity against human HepG2 cells after 72 hrs by MTT assay
# HepG2 [9] = assay: Induction of morphological changes in human HepG2 cells assessed as chromatin condensation at 0.47 uM by acridine orange dye based inverted microscopy and fluorescence microscopic method; assay type: functional, cell-based
# MCF7 [10] = assay: cells; conditions: Homo sapiens, MCF7, 72 h
# Description: Cytotoxicity against human MCF7 cells after 72 hrs by MTT assay
# [11] = target: Epidermal growth factor receptor (Homo sapiens, UniProt P00533); assay: Inhibition of EGFR (unknown origin) using FAM-labeled peptide substrate after 10 mins by mobility shift assay
# Sequence of Epidermal growth factor receptor (P00533 whole entry): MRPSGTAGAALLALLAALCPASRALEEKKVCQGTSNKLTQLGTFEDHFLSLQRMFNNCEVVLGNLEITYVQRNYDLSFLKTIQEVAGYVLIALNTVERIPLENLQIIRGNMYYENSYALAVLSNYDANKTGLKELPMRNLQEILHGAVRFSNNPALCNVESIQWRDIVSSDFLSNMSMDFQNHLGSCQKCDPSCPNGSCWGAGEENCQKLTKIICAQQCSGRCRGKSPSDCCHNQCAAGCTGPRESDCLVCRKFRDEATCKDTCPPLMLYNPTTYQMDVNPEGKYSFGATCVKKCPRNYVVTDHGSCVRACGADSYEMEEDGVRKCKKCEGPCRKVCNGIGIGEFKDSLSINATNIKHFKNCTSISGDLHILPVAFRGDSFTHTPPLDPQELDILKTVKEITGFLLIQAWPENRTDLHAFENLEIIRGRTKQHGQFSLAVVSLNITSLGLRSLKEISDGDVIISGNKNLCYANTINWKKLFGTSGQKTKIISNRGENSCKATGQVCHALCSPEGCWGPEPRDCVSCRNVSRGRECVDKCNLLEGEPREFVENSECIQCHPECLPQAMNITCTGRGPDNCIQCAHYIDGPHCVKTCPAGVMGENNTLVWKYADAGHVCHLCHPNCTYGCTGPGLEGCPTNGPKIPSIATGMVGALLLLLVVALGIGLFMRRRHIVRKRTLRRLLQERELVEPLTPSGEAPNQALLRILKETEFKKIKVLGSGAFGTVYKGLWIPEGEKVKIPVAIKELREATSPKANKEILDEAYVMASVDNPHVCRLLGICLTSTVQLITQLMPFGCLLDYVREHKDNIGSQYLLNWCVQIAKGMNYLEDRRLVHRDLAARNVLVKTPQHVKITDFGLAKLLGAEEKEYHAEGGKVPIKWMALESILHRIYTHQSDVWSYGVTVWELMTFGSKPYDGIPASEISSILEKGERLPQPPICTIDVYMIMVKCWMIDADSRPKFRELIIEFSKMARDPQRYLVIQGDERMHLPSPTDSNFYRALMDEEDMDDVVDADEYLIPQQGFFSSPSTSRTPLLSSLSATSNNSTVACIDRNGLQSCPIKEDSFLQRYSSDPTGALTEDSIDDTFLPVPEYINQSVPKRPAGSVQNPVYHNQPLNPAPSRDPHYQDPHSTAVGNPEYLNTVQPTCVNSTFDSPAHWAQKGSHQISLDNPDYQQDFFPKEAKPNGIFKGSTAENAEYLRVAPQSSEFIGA
# HepG2 [12] = assay: Induction of apoptosis in human HepG2 cells assessed as necrotic cells at 0.47 uM by Annexin V-FITC/propidium iodide staining based flow cytometry (reference value: 0.28%); assay type: functional
# HepG2 [13] = assay: Induction of apoptosis in human HepG2 cells by Annexin V-FITC/propidium iodide staining based flow cytometry; assay type: functional, cell-based
# HepG2 [14] = assay: Induction of apoptosis in human HepG2 cells assessed as early apoptotic cells at 0.94 uM by Annexin V-FITC/propidium iodide staining based flow cytometry (reference value: 1.11%); assay type: functional
# HepG2 [15] = assay: Induction of apoptosis in human HepG2 cells assessed as live cells at 0.47 uM by Annexin V-FITC/propidium iodide staining based flow cytometry (reference value: 96.54%); assay type: functional
# [16] = target: Hepatocyte growth factor receptor (Homo sapiens, UniProt P08581); assay: Inhibition of c-Met (unknown origin) using FAM-labeled peptide substrate after 10 mins by mobility shift assay
# Sequence of Hepatocyte growth factor receptor (P08581 whole entry): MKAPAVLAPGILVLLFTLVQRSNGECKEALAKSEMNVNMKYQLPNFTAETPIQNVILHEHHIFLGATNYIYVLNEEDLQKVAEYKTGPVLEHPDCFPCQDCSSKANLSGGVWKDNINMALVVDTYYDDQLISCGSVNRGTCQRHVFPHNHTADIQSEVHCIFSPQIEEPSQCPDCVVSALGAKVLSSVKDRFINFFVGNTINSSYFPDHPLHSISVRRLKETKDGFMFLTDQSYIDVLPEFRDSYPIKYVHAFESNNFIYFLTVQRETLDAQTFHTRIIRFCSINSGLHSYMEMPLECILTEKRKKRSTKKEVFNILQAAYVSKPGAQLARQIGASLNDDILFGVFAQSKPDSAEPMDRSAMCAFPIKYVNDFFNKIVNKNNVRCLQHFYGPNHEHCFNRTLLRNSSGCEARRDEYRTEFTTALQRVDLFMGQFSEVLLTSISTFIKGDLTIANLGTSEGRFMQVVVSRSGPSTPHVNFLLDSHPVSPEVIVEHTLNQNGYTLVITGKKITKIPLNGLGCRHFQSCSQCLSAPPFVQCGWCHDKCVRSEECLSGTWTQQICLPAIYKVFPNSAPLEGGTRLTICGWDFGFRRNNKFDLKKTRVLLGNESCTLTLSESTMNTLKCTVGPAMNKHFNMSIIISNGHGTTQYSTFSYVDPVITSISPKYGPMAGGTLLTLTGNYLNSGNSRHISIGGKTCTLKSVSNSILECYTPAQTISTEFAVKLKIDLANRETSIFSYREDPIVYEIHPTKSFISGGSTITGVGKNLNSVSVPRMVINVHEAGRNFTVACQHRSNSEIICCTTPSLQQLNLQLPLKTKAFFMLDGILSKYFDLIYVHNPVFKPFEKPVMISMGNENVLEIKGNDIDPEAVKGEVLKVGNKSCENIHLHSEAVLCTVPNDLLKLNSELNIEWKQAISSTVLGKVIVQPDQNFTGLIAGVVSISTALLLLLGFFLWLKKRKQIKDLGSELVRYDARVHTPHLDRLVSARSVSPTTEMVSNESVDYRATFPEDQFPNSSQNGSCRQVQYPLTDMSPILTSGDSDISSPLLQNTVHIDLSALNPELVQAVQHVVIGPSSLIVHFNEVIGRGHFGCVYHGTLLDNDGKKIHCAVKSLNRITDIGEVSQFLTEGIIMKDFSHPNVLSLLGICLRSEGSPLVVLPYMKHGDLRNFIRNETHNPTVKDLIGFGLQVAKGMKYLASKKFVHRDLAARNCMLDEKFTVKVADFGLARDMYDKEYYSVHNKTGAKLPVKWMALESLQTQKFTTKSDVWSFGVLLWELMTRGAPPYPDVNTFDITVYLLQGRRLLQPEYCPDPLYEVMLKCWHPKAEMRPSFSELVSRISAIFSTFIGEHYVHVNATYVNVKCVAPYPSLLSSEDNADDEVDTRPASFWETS
# HepG2 [17] = assay: Induction of apoptosis in human HepG2 cells assessed as live cells at 0.94 uM by Annexin V-FITC/propidium iodide staining based flow cytometry (reference value: 96.54%); assay type: functional
# HepG2 [18] = assay: Potency index, ratio of foretinib IC50 to compound IC50 for human HepG2 cells; assay type: functional
# MCF7 [19] = assay: Potency index, ratio of foretinib IC50 to compound IC50 for human MCF7 cells; assay type: functional
# HepG2 [20] = assay: Induction of apoptosis in human HepG2 cells assessed as live cells at 0.23 uM by Annexin V-FITC/propidium iodide staining based flow cytometry (reference value: 96.54%); assay type: functional
# HepG2 [21] = assay: Induction of apoptosis in human HepG2 cells assessed as necrotic cells at 0.23 uM by Annexin V-FITC/propidium iodide staining based flow cytometry (reference value: 0.28%); assay type: functional
# [22] = target: Mast/stem cell growth factor receptor Kit (Homo sapiens, UniProt P10721); assay: Inhibition of c-Kit (unknown origin) using FAM-labeled peptide substrate after 10 mins by mobility shift assay
# Sequence of Mast/stem cell growth factor receptor Kit (P10721 whole entry): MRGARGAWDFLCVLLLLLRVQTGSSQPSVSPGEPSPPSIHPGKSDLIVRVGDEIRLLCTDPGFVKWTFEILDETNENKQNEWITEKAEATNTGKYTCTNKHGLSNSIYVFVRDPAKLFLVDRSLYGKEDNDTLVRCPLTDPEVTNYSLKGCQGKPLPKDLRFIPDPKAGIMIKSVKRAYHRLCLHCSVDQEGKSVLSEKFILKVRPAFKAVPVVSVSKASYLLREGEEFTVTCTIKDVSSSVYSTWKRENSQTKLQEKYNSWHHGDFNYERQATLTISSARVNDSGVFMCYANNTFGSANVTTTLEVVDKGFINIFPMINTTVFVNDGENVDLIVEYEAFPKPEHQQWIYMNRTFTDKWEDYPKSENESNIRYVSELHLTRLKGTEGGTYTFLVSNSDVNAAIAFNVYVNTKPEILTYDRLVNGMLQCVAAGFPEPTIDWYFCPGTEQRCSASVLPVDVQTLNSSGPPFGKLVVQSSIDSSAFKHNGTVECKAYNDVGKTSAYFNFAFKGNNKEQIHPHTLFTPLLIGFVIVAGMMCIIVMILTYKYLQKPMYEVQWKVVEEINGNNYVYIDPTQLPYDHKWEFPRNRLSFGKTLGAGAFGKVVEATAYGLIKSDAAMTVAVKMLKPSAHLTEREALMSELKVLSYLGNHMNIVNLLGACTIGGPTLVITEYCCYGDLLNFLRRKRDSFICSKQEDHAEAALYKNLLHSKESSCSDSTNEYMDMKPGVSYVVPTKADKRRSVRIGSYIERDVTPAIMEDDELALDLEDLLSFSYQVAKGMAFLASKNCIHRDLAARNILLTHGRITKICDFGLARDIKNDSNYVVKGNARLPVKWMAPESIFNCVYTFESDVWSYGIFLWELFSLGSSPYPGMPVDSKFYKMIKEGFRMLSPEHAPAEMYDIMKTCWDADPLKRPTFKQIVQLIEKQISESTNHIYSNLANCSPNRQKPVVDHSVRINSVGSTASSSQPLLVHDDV
# [23] = target: T1, Receptor-type tyrosine-protein kinase FLT3 (Homo sapiens, UniProt P36888); assay: Inhibition of FLT3 (unknown origin) using FAM-labeled peptide substrate after 10 mins by mobility shift assay
# T1 sequence (P36888 whole entry): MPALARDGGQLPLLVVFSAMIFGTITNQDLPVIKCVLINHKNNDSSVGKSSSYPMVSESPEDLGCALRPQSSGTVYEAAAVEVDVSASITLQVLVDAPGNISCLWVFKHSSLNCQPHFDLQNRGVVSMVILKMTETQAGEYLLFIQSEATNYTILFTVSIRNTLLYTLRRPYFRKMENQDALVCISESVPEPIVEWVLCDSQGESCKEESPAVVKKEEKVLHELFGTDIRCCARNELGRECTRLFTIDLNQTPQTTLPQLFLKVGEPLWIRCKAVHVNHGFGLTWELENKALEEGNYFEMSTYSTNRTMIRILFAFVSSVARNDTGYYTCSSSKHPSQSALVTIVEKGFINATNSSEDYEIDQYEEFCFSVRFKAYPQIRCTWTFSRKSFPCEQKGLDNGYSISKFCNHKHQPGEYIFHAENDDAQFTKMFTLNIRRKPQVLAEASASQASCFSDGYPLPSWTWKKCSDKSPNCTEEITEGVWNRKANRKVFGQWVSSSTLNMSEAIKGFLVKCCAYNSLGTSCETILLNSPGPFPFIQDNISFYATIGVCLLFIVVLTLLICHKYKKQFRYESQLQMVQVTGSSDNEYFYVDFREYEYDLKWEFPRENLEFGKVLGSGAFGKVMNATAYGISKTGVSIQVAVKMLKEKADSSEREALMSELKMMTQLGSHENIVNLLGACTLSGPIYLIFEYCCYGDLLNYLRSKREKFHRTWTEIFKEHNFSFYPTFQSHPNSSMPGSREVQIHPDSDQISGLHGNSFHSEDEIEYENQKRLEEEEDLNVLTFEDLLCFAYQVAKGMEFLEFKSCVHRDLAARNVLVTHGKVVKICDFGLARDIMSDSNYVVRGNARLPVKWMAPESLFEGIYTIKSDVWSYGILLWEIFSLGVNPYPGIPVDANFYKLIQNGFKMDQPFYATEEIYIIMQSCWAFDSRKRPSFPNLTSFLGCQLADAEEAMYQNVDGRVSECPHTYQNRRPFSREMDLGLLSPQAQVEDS
# [24] = target: Vascular endothelial growth factor receptor 2 (Homo sapiens, UniProt P35968); assay: Inhibition of VEGFR2 (unknown origin) using FAM-labeled peptide substrate after 10 mins by mobility shift assay
# Sequence of Vascular endothelial growth factor receptor 2 (P35968 whole entry): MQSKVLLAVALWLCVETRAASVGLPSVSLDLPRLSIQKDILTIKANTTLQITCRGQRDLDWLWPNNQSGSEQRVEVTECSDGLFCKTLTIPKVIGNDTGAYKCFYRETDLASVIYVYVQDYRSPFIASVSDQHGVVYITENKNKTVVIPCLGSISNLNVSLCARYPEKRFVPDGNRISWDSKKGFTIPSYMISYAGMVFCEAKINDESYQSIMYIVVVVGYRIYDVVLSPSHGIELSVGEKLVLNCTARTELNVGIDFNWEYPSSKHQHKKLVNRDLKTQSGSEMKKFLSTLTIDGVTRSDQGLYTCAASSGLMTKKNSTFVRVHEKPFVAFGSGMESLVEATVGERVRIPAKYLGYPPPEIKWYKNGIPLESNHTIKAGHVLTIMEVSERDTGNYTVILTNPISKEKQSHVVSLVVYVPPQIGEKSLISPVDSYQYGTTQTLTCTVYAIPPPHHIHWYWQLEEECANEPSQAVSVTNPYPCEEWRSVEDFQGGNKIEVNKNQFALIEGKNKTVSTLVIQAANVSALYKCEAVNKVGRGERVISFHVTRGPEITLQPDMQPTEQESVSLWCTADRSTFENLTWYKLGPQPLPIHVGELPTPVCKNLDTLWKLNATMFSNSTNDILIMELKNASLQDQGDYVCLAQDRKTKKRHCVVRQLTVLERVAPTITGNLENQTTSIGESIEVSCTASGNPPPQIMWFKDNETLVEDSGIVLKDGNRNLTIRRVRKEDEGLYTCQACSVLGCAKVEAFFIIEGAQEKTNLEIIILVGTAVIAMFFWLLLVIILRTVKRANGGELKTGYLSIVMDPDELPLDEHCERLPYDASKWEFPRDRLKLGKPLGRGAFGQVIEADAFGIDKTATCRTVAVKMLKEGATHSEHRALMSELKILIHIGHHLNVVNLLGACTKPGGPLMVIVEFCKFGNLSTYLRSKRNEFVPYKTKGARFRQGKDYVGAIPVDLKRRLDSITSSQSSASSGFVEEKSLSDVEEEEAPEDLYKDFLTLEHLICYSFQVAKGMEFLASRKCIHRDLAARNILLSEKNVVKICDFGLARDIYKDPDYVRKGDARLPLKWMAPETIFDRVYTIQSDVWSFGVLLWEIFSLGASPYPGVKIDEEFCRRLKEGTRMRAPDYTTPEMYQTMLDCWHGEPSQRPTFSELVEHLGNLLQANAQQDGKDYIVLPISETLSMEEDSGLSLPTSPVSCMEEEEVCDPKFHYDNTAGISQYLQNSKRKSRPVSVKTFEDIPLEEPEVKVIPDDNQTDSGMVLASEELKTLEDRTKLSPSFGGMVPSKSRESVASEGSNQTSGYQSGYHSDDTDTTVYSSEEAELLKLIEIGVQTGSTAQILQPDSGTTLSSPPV
smiles,measurement,setting,value
Cc1cc(=O)n(-c2ccc(F)cc2)nc1C(=O)Nc1ccc(Oc2ncnc3ccsc23)c(F)c1,Activity,HepG2 [1],16.09%
same,Activity,HepG2 [2],8.08%
same,Activity,HepG2 [3],2.31%
same,Activity,HepG2 [4],Active
same,IC50,A549,580 nM
same,Activity,HepG2 [5],10.3%
same,Activity,HepG2 [6],6.54%
same,Activity,HepG2 [7],21%
same,IC50,HepG2 [8],470 nM
same,Activity,HepG2 [9],Active
same,IC50,MCF7 [10],740 nM
same,IC50,[11],6900 nM
same,Activity,HepG2 [12],1.25%
same,Activity,HepG2 [13],Dose-dependent effect
same,Activity,HepG2 [14],13.9%
same,Activity,HepG2 [15],72.36%
same,IC50,[16],19 nM
same,Activity,HepG2 [17],62.8%
same,Ratio IC50,HepG2 [18],3.73 - 5.39
same,Ratio IC50,MCF7 [19],3.73 - 5.39
same,Activity,HepG2 [20],84.11%
same,Activity,HepG2 [21],1.28%
same,IC50,[22],3700 nM
same,IC50,[23],950 nM
same,IC50,[24],450 nM
